IC50 data for 11 compounds are collected here from US20260083750A1, “SMALL MOLECULE INHIBITORS OF KRAS PROTEINS” (MERCK SHARP & DOHME LLC, priority 2022, published 2026).

Assay [1] deals with T1, KRAS-G12D (Homo sapiens, UniProt P01116, G12D).
T1 construct: N-terminal biotin-acceptor peptide […]
Put plainly: SOS-catalyzed nucleotide exchange assay (Procedure A, TR-FRET). The settings on record: 60 min preincubation, SOS + GTP, read-out: KRAS G12D GNE IC50. The format is biochemical. An excerpt:
(§1) Procedure for SOS-Catalyzed Nucleotide Exchange Assay for KRAS-G12C/D/V, G13D, HRAS, and NRAS (Procedure A)
(§2) Recombinant KRAS-G12C protein used in this assay has an additional triple mutation (C51S/C80L/C118S), whereas KRAS-G12D/V, G13D, HRAS and NRAS are in context of their WT protein sequence background. Specifically, the SOS-catalyzed nucleotide exchange assay utilizes a preformed TR-FRET complex containing a specific biotinylated RAS protein (KRAS-G12C/V/D, G13D, HRAS, NRAS; described above) with Bodipy-GDP, and Terbium-streptavidin. Compounds are preincubated with this complex for 60 minutes. Subsequently, recombinant human SOS protein and unlabeled GTP are added to initiate the exchange reaction. Small molecule inhibitors stabilize the Bodipy-GDP complex whereas the untreated protein rapidly exchanges Bodipy-GDP for unlabeled GTP resulting in reduced TR-FRET signal.
(§3) To assemble the preformed TR-FRET complexes, each biotinylated RAS protein is diluted to 2 μM in an EDTA Buffer (20 mM HEPES pH 7.5, 50 mM sodium chloride, 10 mM EDTA, and 0.01% Tween) and incubated at room temperature for one hour. This mixture is then further diluted to 90 nM in an Assay Buffer (20 mM HEPES pH 7.5, 150 mM sodium chloride, 10 mM magnesium chloride, and 0.005% Tween) containing 15 nM of Terbium-Streptavidin (Invitrogen, catalog #PV3577) and 900 nM of Bodipy-GDP (Invitrogen, catalog #G22360) and incubated at room temperature for six hours. It should be noted that this preformed TR-FRET complex for each of the RAS protein were made ahead of time, aliquoted and stored at −80° C. until the day of the experiment.
(§4) Each test compound (10 mM stock in DMSO) is diluted in DMSO to make a final-10-point, 3-fold dilution and is acoustically dispensed into a 384-well assay plate (Corning, catalog #3820) using an Echo 550 (Labcyte). Each well of the assay plate receives 3 μL of a specific 3× RAS preformed TR-FRET complex and 3 μL of Assay Buffer and is incubated at room temperature for 60 minutes (preincubation time). Each well then receives 3 μL of 3× recombinant human SOS protein and GTP (Sigma, G8877) in Assay Buffer and is incubated at room temperature for 30 minutes (G13D), 60 minutes (G12C/D, H/NRAS) or 90 minutes for G12V. The final reaction in each well of […] consists of 3 mM GTP, specific Ras and SOS proteins in the following concentrations: KRAS-G12C/SOS=3 nM/40 nM, KRAS-G12D/SOS=1 nM/40 nM, KRAS-G12V/SOS=1.25 nM/160 nM, KRAS-G13D/SOS=1.25 nM/0 nM, HRAS & NRAS=1.25 nM/40 nM.
(§5) The time-resolved fluorescence resonance energy transfer (TR-FRET) signal is measured on an Envision (PerkinElmer) plate reader: Excitation filter=340 nm; emission1=495 nm; emission2=520 nm; dichroic mirror=D400/D505; delay time=[…]. The signal of each well is determined as the ratio of the emission at 520 nm to that at 495 nm. […] The apparent effect as a function of compound concentration is fit to a four-parameter logistic equation.
A general note: In TR-FRET formats the signal depends on donor and acceptor labels being close together.

The target of assay [2] is T2, KRAS-G12V (Homo sapiens, UniProt P01116, G12V).
T2 construct: N-terminal biotin-acceptor peptide […]
Described as above. The settings on record: 60 min preincubation, SOS + GTP, read-out: KRAS G12V GNE IC50. The format is biochemical.
Source text: as §1, §2, §3, §4, §5

Assay [3] deals with PANC08.13 cells (homozygous KRAS-G12D activating mutation). Put plainly: Cellular phospho-ERK assay in G12D cell line. The settings on record: Homo sapiens, PANC-08-13, 2 hours compound incubation, ratio of p-ERK vs. total ERK, read-out: PANC 0813 pERK IC50. The class given is cell-based. As for the experimental part:
Procedure for Cellular Phospho-ERK Assay in G12D and G12V Cell Lines
PANC08.13 cells (ATCC® CRL-2551™), containing homozygous KRAS-G12D activating mutation, were cultured in growth medium made of RPMI1640-GlutaMAX™—I (ThermoFisher Scientific 61870) containing 15% heat inactivated fetal bovine serum (ThermoFisher Scientific 10091148)). SW620 cells (ATCC® […]), containing homozygous KRAS-G12V activating mutation, were cultured in growth medium that contains RPMI 1640-GlutaMAX™—I (ThermoFisher Scientific 61870) containing 10% heat inactivated fetal bovine serum (ThermoFisher Scientific 10091148).
Cells for the assay were harvested in growth medium after TrypLE (ThermoFisher scientific 12604021) digestion and were seeded in a 384-well collagen coated cell culture plate (Corning 356702) at a density of 10,000-15,000 cells/20 uL/well, and incubated at 37° C., 5% CO2 overnight. The compound (with 10 mM stock concentration) dose-response titrations were prepared [30 μM final ERK detection assay concentration and 1:3 dilutions, 10-point dose response] and appropriate amounts (270 nL) of test compounds were dispensed in a 384-well intermediate plate using an Echo 550 liquid handler. 30 uL/well of RPMI medium 1640-GlutaMAX™—I was added to the intermediate plate and the contents of the intermediate plate (10 uL/well) were then transferred to the 384-well collagen coated cell culture plate, which was incubated at 37° C., 5% CO2 for 2 hours. After removal of medium from the collagen coated cell culture plate, cells were lysed in lysis buffer from Alpha SureFire® Ultra™ Multiplex p-ERK and total ERK assay kit (PerkinElmer MPSU-PTERK) containing Halt™ Protease and Phosphatase inhibitor cocktail (ThermoFisher Scientific 78446) at room temperature with constant shaking at 300 rpm for 30 minutes. The cell lysates were then transferred to an OptiPlate-384 plate (PerkinElmer 6005620), and the phosphorylation of ERK (p-ERK) and total ERK levels were detected by Alpha SureFire® Ultra™ Multiplex p-EEK kit and total ERK assay kit (PerkinElmer MPSU-PTERK) following the manufacturer's protocol. Assay plates were read on a EnVision Multimode Plate Reader (PerkinElmer), and the ratio of p-ERK vs. total ERK in each well was used as the final readout. Dose response curves were analyzed using a 4-parameter logistic model to calculate IC50 values using Spotfire software.

Each structure is given as a SMILES string.

T2 sequence (P01116 with tags, fused parts or gaps isoform P01116-2 G12V): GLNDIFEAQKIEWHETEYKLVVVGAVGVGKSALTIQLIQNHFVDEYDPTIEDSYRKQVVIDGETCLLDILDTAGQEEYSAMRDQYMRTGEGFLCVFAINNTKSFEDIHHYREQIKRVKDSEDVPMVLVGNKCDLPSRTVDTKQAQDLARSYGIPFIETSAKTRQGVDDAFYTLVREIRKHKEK
T1 sequence (P01116 with tags, fused parts or gaps isoform P01116-2 G12D): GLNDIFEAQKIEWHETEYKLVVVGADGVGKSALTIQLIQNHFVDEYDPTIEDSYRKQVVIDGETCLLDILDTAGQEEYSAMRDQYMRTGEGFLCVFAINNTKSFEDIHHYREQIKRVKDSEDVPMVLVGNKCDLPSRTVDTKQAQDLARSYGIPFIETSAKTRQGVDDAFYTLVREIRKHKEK

By IC50 is commonly meant the concentration at which inhibition is half-maximal. Regarding `N#Cc1c(N)sc2c(F)ccc(-c3cc4nc(OC[C@@]56CCCN5C[C@H](F)C6)nc(N5CCCOCC5)c4nc3C(F)(F)F)c12` [Ex. 46, 2-amino-7-fluoro-4-(2-(((2R,7aS)-2-fluorotetrahydro-1H-pyrrolizin-7a(5H)-yl)methoxy)-4-(1,4-oxazepan-4-yl)-6-(trifluoromethyl)pyrido[3,2-d]pyrimidin-7-yl)benzo[b]thiophene-3-carbonitrile], the figures for the IC50 in assay [1] and in assay [2] were 40.9 nM and 8.9 nM, respectively.
`CCC1CCOCCN1c1nc(OC[C@@]23CCCN2C[C@H](F)C3)nc2c(F)c(-c3ccc(F)c4sc(N)c(C#N)c34)c(Cl)cc12` (stereo partly drawn) [compound 14, 2-amino-4-(6-chloro-4-(5-ethyl-1,4-oxazepan-4-yl)-8-fluoro-2-(((2R,7aS)-2-fluorotetrahydro-1H-pyrrolizin-7a(5H)-yl)methoxy)quinazo-lin-7-yl)-7-fluorobenzo[b]thio-phene-3-carbonitrile]: the IC50 was 154 nM in assay [3], 6.32 nM in assay [1] and 6.18 nM in assay [2].
In the case of `Cc1cc(N)nc(-c2c(Cl)cc3c(N4CCCSCC4)nc(OC[C@@]45CCCN4C[C@H](F)C5)nc3c2F)c1C(F)(F)F` [compound 42, 6-(6-chloro-8-fluoro-2-(((2R,7aS)-2-fluorotetrahydro-1H-pyrrolizin-7a(5H)-yl)methoxy)-4-(1,4-thiazepan-4-yl)quinazolin-7-yl)-4-methyl-5-(trifluoromethyl)pyridin-2-amine], the figures for the IC50 in assay [1] and in assay [2] were 273 nM and 59.1 nM, respectively.
For `Cc1cc(N)nc(-c2c(Cl)cc3c(N4CCOCC(F)(F)C4)nc(OC[C@@]45CCCN4C[C@H](F)C5)nc3c2F)c1C(F)(F)F` [compound 43, 6-(6-chloro-4-(6,6-difluoro-1,4-oxazepan-4-yl)-8-fluoro-2-(((2R,7aS)-2-fluorotetrahydro-1H-pyrrolizin-7a(5H)-yl)methoxy)quinazolin-7-yl)-4-methyl-5-(trifluoromethyl)pyridin-2-amine], in that order: 927 nM and 91.8 nM.
On to `N#Cc1c(N)sc2c(F)ccc(-c3c(Cl)cc4c(N5C6COCC5C6)nc(OC[C@@]56CCCN5C[C@H](F)C6)nc4c3F)c12` [compound 47, 4-(4-(3-oxa-6-azabicyclo[3.1.1]heptan-6-yl)-6-chloro-8-fluoro-2-(((2R,7aS)-2-fluorotetrahydro-1H-pyrrolizin-7a(5H)-yl)methoxy)quinazolin-7-yl)-2-amino-7-fluorobenzo[b]thiophene-3-carbonitrile], for which the 50% inhibitory concentration (IC50) in assay [1] was found to be 23.4 nM.
On to `N#Cc1c(N)sc2c(F)ccc(-c3c(Cl)cc4c(N5CCOCC5)nc(OC[C@@]56CCCN5C[C@H](F)C6)nc4c3F)c12` [compound 48, 2-amino-4-(6-chloro-8-fluoro-2-(((2R,7aS)-2-fluorotetrahydro-1H-pyrrolizin-7a(5H)-yl)methoxy)-4-morpholinoquinazolin-7-yl)-7-fluorobenzo[b]thiophene-3-carbonitrile], for which the IC50 in assay [1] is 70.9 nM; in assay [2], 8.89 nM.
For `C[C@H]1CCOCCN1c1nc(OC[C@@]23CCCN2C[C@H](F)C3)nc2c(F)c(-c3ccc(F)c4sc(N)c(C#N)c34)ccc12` [compound 49, 2-amino-7-fluoro-4-(8-fluoro-2-(((2R,7aS)-2-fluorotetrahydro-1H-pyrrolizin-7a(5H)-yl)methoxy)-4-((S)-5-methyl-1,4-oxazepan-4-yl)quinazolin-7-yl)benzo[b]thiophene-3-carbonitrile], in that order: 477 nM and 160 nM.
For `C[C@H]1CCOCCN1c1nc(OC[C@@]23CCCN2C[C@H](F)C3)nc2cc(-c3ccc(F)c4sc(N)c(C#N)c34)c(C(F)(F)F)nc12` [compound 50, 2-amino-7-fluoro-4-(2-(((2R,7aS)-2-fluorotetrahydro-1H-pyrrolizin-7a(5H)-yl)methoxy)-4-((S)-5-methyl-1,4-oxazepan-4-yl)-6-(trifluoromethyl)pyrido[3,2-d]pyrimidin-7-yl)benzo[b]thiophene-3-carbonitrile], in that order: 30.5 nM and 7.6 nM.
As for `N#Cc1c(N)sc2c(F)ccc(-c3c(C(F)(F)F)cc4c(N5CC6COC(C6)C5)nc(OC[C@@]56CCCN5C[C@H](F)C6)nc4c3F)c12` (stereo partly drawn) [compound 51, 4-(4-((1R,5S)-6-oxa-3-azabicyclo[3.2.1]octan-3-yl)-8-fluoro-2-(((2R,7aS)-2-fluorotetrahydro-1H-pyrrolizin-7a(5H)-yl)methoxy)-6-(trifluoromethyl)quinazo-lin-7-yl)-2-amino-7-fluorobenzo[b]thiophene-3-carbonitrile], the IC50 in assay [1] came to 23.7 nM; in assay [2], 4.52 nM.
Taken in the same sequence, the figures for `N#Cc1c(N)sc2c(F)ccc(-c3c(C(F)(F)F)cc4c(N5C[C@H]6CC[C@H]6C5)nc(OC[C@@]56CCCN5C[C@H](F)C6)nc4c3F)c12` [compound 52, 4-(4-((1R,5S)-3-azabicyclo[3.2.0]heptan-3-yl)-8-fluoro-2-(((2R,7aS)-2-fluorotetrahydro-1H-pyrrolizin-7a(5H)-yl)methoxy)-6-(trifluoromethyl)quinazo-lin-7-yl)-2-amino-7-fluorobenzo[b]thiophene-3-carbonitrile] were 210 nM and 43.1 nM.
Take `N#Cc1c(N)sc2c(F)ccc(-c3c(C(F)(F)F)cc4c(N5CCC6(C5)CC6(F)F)nc(OC[C@@]56CCCN5C[C@H](F)C6)nc4c3F)c12` (stereo partly drawn) [compound 53, 2-amino-4-(4-(1,1-difluoro-5-azaspiro[2.4]heptan-5-yl)-8-fluoro-2-(((2R,7aS)-2-fluorotetrahydro-1H-pyrrolizin-7a(5H)-yl)methoxy)-6-(trifluoromethyl)quinazo-lin-7-yl)-7-fluorobenzo[b]thiophene-3-carbonitrile]: the IC50 in assay [1] worked out at 972 nM; in assay [2], 84.7 nM.
